According to PubChem BioAssay AID248 (DTP/NCI, 2004):
Where “and” joins values, the source holds several entries; their conditions need not be identical. Equal values may be shown once. Inconclusive results and toxic doses are left out. No stated cut-off is given here; in the data, active means T/C of 150% or more; inactive means T/C below 125%.

Test system: L1210 leukemia ip in BDF1 mice, survival T/C
Experiment: NCI In Vivo Anticancer Drug Screen. Data for tumor model L1210 Leukemia (intraperitoneal) in B6D2F1 (BDF1) mice
Conditions: endpoint: mean survival time, higher = longer survival
How it was run: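 Survival endpoint. Drug-treated group vs vehicle group, expressed as T divided by C. Tumor passaged by transplantation.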

[1] = dose: 100.0 mg/kg/injection, schedule: Q01DX001 (ip), vehicle: carboxymethylcellulose (CMC)
[2] = dose: 200.0 mg/kg/injection, schedule: Q01DX001 (ip), vehicle: carboxymethylcellulose (CMC)
[3] = dose: 100.0 mg/kg/injection, schedule: Q01DX001 (ip), vehicle: saline
[4] = dose: 50.0 mg/kg/injection, schedule: Q01DX009 (ip), vehicle: saline with Tween-80
[5] = dose: 100.0 mg/kg/injection, schedule: Q01DX009 (ip), vehicle: saline with Tween-80
[6] = dose: 200.0 mg/kg/injection, schedule: Q01DX009 (ip), vehicle: saline with Tween-80
[7] = dose: 100.0 mg/kg/injection, schedule: Q04DX003 (ip), vehicle: Klucel (hydroxypropylcellulose) (HPC)
[8] = dose: 200.0 mg/kg/injection, schedule: Q04DX003 (ip), vehicle: Klucel (hydroxypropylcellulose) (HPC)
[9] = dose: 100.0 mg/kg/injection, schedule: Q04DX003 (ip), vehicle: saline with Tween-80
[10] = dose: 200.0 mg/kg/injection, schedule: Q04DX003 (ip), vehicle: saline with Tween-80
[11] = dose: 150.0 mg/kg/injection, schedule: Q01DX001 (ip), vehicle: saline

Measured: T/C

CC[N+](CC)(CC)CC(=O)NCc1ccco1
inactive: dose: 50.0 mg/kg/injection, schedule: Q01DX001 (ip), vehicle: carboxymethylcellulose (CMC) 105 % of control | dose: 50.0 mg/kg/injection, schedule: Q01DX009 (ip), vehicle: carboxymethylcellulose (CMC) 103 % of control | dose: 50.0 mg/kg/injection, schedule: Q04DX003 (ip), vehicle: carboxymethylcellulose (CMC) 94 % of control | [1] 99 % of control | dose: 100.0 mg/kg/injection, schedule: Q01DX009 (ip), vehicle: carboxymethylcellulose (CMC) 103 % of control and 104 % of control | dose: 100.0 mg/kg/injection, schedule: Q04DX002 (ip), vehicle: carboxymethylcellulose (CMC) 95 % of control and 103 % of control | dose: 100.0 mg/kg/injection, schedule: Q04DX003 (ip), vehicle: carboxymethylcellulose (CMC) 102 % of control | [2] 99 % of control | dose: 200.0 mg/kg/injection, schedule: Q01DX009 (ip), vehicle: carboxymethylcellulose (CMC) 101 % of control and 90 % of control | dose: 200.0 mg/kg/injection, schedule: Q04DX002 (ip), vehicle: carboxymethylcellulose (CMC) 97 % of control and 92 % of control | dose: 200.0 mg/kg/injection, schedule: Q04DX003 (ip), vehicle: carboxymethylcellulose (CMC) 102 % of control | dose: 400.0 mg/kg/injection, schedule: Q04DX002 (ip), vehicle: carboxymethylcellulose (CMC) 90 % of control

N#CC(OC(=O)c1ccccc1)c1ccc([N+](=O)[O-])cc1 (centres undefined)
inactive: [3] 102 % of control

CC(=O)Oc1cccc(OC(=O)Nc2ccccc2F)c1
inactive: dose: 25.0 mg/kg/injection, schedule: Q01DX009 (ip), vehicle: saline with Tween-80 103 % of control | [4] 108 % of control | [5] 103 % of control and 113 % of control | [6] 95 % of control and 103 % of control

Cc1cc2c(cc1C)/C(=N/O)CCC2
inactive: dose: 100.0 mg/kg/injection, schedule: Q01DX009 (ip), vehicle: Klucel (hydroxypropylcellulose) (HPC) 100 % of control | dose: 200.0 mg/kg/injection, schedule: Q01DX009 (ip), vehicle: Klucel (hydroxypropylcellulose) (HPC) 101 % of control | dose: 400.0 mg/kg/injection, schedule: Q01DX009 (ip), vehicle: Klucel (hydroxypropylcellulose) (HPC) 101 % of control

C=C(Br)CNC(=O)C(C)C
inactive: dose: 5.0 mg/kg/injection, schedule: Q04DX003 (ip), vehicle: saline with Tween-80 102 % of control | dose: 10.0 mg/kg/injection, schedule: Q04DX003 (ip), vehicle: saline with Tween-80 103 % of control | dose: 20.0 mg/kg/injection, schedule: Q04DX003 (ip), vehicle: saline with Tween-80 102 % of control

CC(OC(=O)c1ccccc1C(=O)O)c1ccccc1 (centres undefined)
inactive: [1] 93 % of control | [2] 96 % of control | dose: 400.0 mg/kg/injection, schedule: Q01DX001 (ip), vehicle: carboxymethylcellulose (CMC) 96 % of control

C=C(Cl)CNC(=O)c1ccc([N+](=O)[O-])cc1
inactive: [7] 98 % of control | [8] 104 % of control

NC(CSS(=O)(=O)O)=NCCCCc1ccccc1
inactive: dose: 12.5 mg/kg/injection, schedule: Q04DX002 (ip), vehicle: Klucel (hydroxypropylcellulose) (HPC) 91 % of control | dose: 25.0 mg/kg/injection, schedule: Q04DX002 (ip), vehicle: Klucel (hydroxypropylcellulose) (HPC) 102 % of control

CC1=CCC(=O)C2(C)CC(O)C(C(C)C(=O)O)C=C12 (centres undefined)
inactive: dose: 100.0 mg/kg/injection, schedule: Q04DX003 (ip), vehicle: acetone 97 % of control | dose: 200.0 mg/kg/injection, schedule: Q04DX003 (ip), vehicle: acetone 95 % of control | dose: 400.0 mg/kg/injection, schedule: Q04DX003 (ip), vehicle: acetone 105 % of control

NC(=O)Nc1ccc(Cl)cc1
inactive: [5] 101 % of control | [7] 99 % of control | [6] 96 % of control | [8] 91 % of control | dose: 400.0 mg/kg/injection, schedule: Q04DX003 (ip), vehicle: Klucel (hydroxypropylcellulose) (HPC) 102 % of control

CC(C)OC(C)(C=O)OC(=O)Nc1cccc2ccccc12 (centres undefined)
inactive: dose: 100.0 mg/kg/injection, schedule: Q04DX002 (sc), vehicle: olive oil, sesame oil, peanut oil 100 % of control | dose: 200.0 mg/kg/injection, schedule: Q04DX002 (sc), vehicle: olive oil, sesame oil, peanut oil 95 % of control | dose: 400.0 mg/kg/injection, schedule: Q04DX002 (sc), vehicle: olive oil, sesame oil, peanut oil 103 % of control

CN(CCO)N=Nc1ccccc1C(N)=O
active: dose: 400.0 mg/kg/injection, schedule: Q01DX009 (ip), vehicle: saline with Tween-80 162 % of control and 177 % of control | dose: 600.0 mg/kg/injection, schedule: Q01DX009 (ip), vehicle: saline with Tween-80 176 % of control
inactive: [5] 117 % of control | [9] 105 % of control | [10] 110 % of control | dose: 400.0 mg/kg/injection, schedule: Q04DX003 (ip), vehicle: saline with Tween-80 104 % of control

CC(=O)[O][Hg][c]1sc2ccccc2c1C
inactive: dose: 0.5 mg/kg/injection, schedule: Q01DX015 (ip), vehicle: other 106 % of control | dose: 1.0 mg/kg/injection, schedule: Q01DX015 (ip), vehicle: other 98 % of control | dose: 1.5 mg/kg/injection, schedule: Q04DX003 (ip), vehicle: saline 103 % of control | dose: 2.0 mg/kg/injection, schedule: Q01DX015 (ip), vehicle: other 98 % of control | dose: 2.12 mg/kg/injection, schedule: Q01DX009 (ip), vehicle: saline with Tween-80 98 % of control | dose: 3.0 mg/kg/injection, schedule: Q01DX001 (ip), vehicle: acetone 101 % of control | dose: 3.0 mg/kg/injection, schedule: Q04DX003 (ip), vehicle: saline 95 % of control | dose: 4.0 mg/kg/injection, schedule: Q01DX015 (ip), vehicle: other 96 % of control | dose: 4.25 mg/kg/injection, schedule: Q01DX009 (ip), vehicle: saline with Tween-80 95 % of control | dose: 6.0 mg/kg/injection, schedule: Q01DX001 (ip), vehicle: acetone 95 % of control | dose: 6.0 mg/kg/injection, schedule: Q04DX003 (ip), vehicle: saline 98 % of control | dose: 8.5 mg/kg/injection, schedule: Q01DX009 (ip), vehicle: saline with Tween-80 98 % of control | dose: 8.5 mg/kg/injection, schedule: Q04DX003 (ip), vehicle: acetone 98 % of control | dose: 12.0 mg/kg/injection, schedule: Q01DX001 (ip), vehicle: acetone 86 % of control | dose: 12.0 mg/kg/injection, schedule: Q01DX009 (ip), vehicle: saline with Tween-80 95 % of control and 88 % of control | dose: 19.0 mg/kg/injection, schedule: Q01DX009 (ip), vehicle: saline with Tween-80 92 % of control | dose: 28.0 mg/kg/injection, schedule: Q01DX009 (ip), vehicle: saline with Tween-80 106 % of control

OC12CC[N+](Cc3ccccc3)(CC1)CC2
inactive: dose: 75.0 mg/kg/injection, schedule: Q01DX001 (ip), vehicle: saline 104 % of control | [11] 100 % of control

CN1CCCN(C)C1
inactive: [4] 100 % of control | [5] 100 % of control | [9] 93 % of control | [10] 88 % of control

Nc1nc(CBr)c(CCCCc2ccccc2)c(=O)[nH]1
inactive: dose: 37.5 mg/kg/injection, schedule: Q01DX001 (ip), vehicle: saline with Tween-80 100 % of control | dose: 75.0 mg/kg/injection, schedule: Q01DX001 (ip), vehicle: saline with Tween-80 101 % of control

CC(OCCC#N)C(C)OCCC#N (centres undefined)
inactive: dose: 44.0 mg/kg/injection, schedule: Q01DX001 (ip), vehicle: saline 93 % of control | dose: 45.0 mg/kg/injection, schedule: Q01DX001 (ip), vehicle: saline 102 % of control | dose: 50.0 mg/kg/injection, schedule: Q01DX001 (ip), vehicle: saline 98 % of control | dose: 67.0 mg/kg/injection, schedule: Q01DX001 (ip), vehicle: saline 96 % of control and 104 % of control | [3] 98 % of control and 101 % of control (2×) | [11] 101 % of control and 102 % of control | dose: 200.0 mg/kg/injection, schedule: Q01DX001 (ip), vehicle: saline 98 % of control | dose: 400.0 mg/kg/injection, schedule: Q01DX001 (ip), vehicle: saline 98 % of control

Cc1ccc(S(=O)(=O)N/N=C(\CSc2ccc(N(C)C)cc2)c2ccccc2)cc1
inactive: dose: 50.0 mg/kg/injection, schedule: Q04DX002 (ip), vehicle: saline with Tween-80 105 % of control | dose: 100.0 mg/kg/injection, schedule: Q04DX002 (ip), vehicle: saline with Tween-80 86 % of control | dose: 200.0 mg/kg/injection, schedule: Q04DX002 (ip), vehicle: saline with Tween-80 97 % of control | dose: 400.0 mg/kg/injection, schedule: Q04DX002 (ip), vehicle: saline with Tween-80 90 % of control
